Results taken from patent US20220204491A1, “FXR (NR1H4) MODULATING COMPOUNDS” (Gilead Sciences, Inc., priority 2019, published 2022).

Biological target: T1, human UGT1A1 (Homo sapiens, UniProt P22309)
T1 construct: purchased
T1 sequence (P22309 26-533): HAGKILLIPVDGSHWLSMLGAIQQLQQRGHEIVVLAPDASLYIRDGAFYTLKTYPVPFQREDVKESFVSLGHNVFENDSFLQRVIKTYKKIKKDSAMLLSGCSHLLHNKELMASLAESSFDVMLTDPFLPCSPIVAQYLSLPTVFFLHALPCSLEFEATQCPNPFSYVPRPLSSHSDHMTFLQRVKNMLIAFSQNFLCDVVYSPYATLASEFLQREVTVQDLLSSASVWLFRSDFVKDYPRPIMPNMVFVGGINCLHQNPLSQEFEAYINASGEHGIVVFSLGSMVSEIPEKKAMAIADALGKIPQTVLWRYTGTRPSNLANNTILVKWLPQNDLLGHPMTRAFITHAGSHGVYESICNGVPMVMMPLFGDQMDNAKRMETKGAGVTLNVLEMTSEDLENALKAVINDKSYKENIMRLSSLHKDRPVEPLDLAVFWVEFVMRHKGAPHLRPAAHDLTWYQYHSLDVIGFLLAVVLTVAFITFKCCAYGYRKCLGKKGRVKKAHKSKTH
Assay: UGT1A1 inhibition (estradiol 3-glucuronide formation, Supersomes)
Assay type: in vitro ADME
Method: The compound of Formula (I) (Example 1) was tested for inhibition of UGT1A1 and was compared against Comparative Example 1. To perform the assay, sample compound was incubated with human UGT1A1 expressed Supersomes™ (0.25 mg/mL), alamethicin (25 μg/mg) and UDPGA (5 mM) in the presence of probe substrate estradiol (10 μM) for 30 mins at 37° C. A selective UGT1A1 inhibitor, atazanavir, was screened alongside the test compounds as a positive control. The reactions were terminated by quenching an aliquot into two volumes of methanol. The samples were centrifuged at 2500 rpm for 30 mins at 4° C., and aliquots of the supernatant were diluted with formic acid in deionised water (final formic acid concentration 0.1%) and internal standard. Cyprotex generic LC-MS/MS conditions were used to monitor estradiol 3-glucuronide formation. A decrease in the formation of the metabolite compared to vehicle control is used to calculate an IC50 value.

IC50 (probe substrate estradiol 10 μM, 30 mins at 37° C.): 440 nM
Structure (SMILES): O=C(O)c1ccc(N2CC(O)(c3ccc(OCc4c(-c5c(Cl)cc(F)cc5Cl)noc4C4CC4)cc3Cl)C2)nc1 [Example 1, 6-(3-(2-chloro-4-((5-cyclopropyl-3-(2,6-dichloro-4-fluorophenyl)isoxazol-4-yl)methoxy)phenyl)-3-hydroxyazetidin-1-yl)nicotinic acid]
UGT1A1 inhibition, comparison of the compounds (Example 1 compared against Comparative Example 1): most potent UGT1A1 inhibition of the compounds compared
